Measurements taken from paper PMC3735939, “The low levels of eicosapentaenoic acid in rat brain phospholipids are maintained via multiple redundant mechanisms” (Journal of Lipid Research, 2013).

Tested on: mitochondrial FA β-oxidation
Assay: Radioactivity in brain aqueous fraction (marker of β-oxidation) after 5 min intravenous 14C-tracer infusion
Format: in vivo, rat
Conditions: MEP 10 mg/kg iv 10 min before infusion
Protocol: Twenty-four hours postsurgery, a second catheter (iv catheter 24 gauge/0.75 inch, Angiocath™; Becton Dickinson) was implanted into the tail vein where rats received either vehicle or 10 mg/kg of MEP. Ten minutes post injection of vehicle or MEP, the tail vein catheter was connected to a syringe containing radiolabeled ^14C-palmitate (n = 8), ^14C-DHA (n = 6), or ^14C-EPA (n = 7) attached to a computer-controlled variable speed pump (PHD 22/2000; Harvard Apparatus, Holliston, MA). […] Each rat received a dose of 76 μCi ^14C-palmitate, 76 μCi ^14C-DHA, or 78 μCi ^14C-EPA. […] The radiotracer infusions continued until rats were euthanized. The brain was excised and cut sagittally. Both hemispheres were stored at −80°C for radioactive and biochemical analyses. Plasma was isolated from whole blood via microcentrifugation at 6,200 rpm (2,000 g) for 5 min and stored at −80°C. Total lipids from one brain hemisphere and from plasma were extracted by the method of Folch, Lees, and Sloane Stanley ([39]). Isolation of various neutral lipid and phospholipid classes from the total lipid extract was previously described by Chen, Liu, and Bazinet ([6]).

For CCCCCCCCCCCCCCC1(C(=O)OC)CO1 (stereo not drawn) [MEP, methyl-2-tetradecylglycidate, reference compound], the “reduction of radioactivity in brain aqueous fraction” value (14C-DHA-infused rats) was 23%, the “reduction of radioactivity in brain aqueous fraction” value (14C-EPA-infused rats) was 54% and the “reduction of radioactivity in brain aqueous fraction” value (14C-palmitate-infused rats) was 74%.
